Source: BindingDB's records for doi:10.1021/jm00128a026 (Roche Research Center, 1989)

target: Platelet-activating factor receptor (Canis lupus familiaris); test: Inhibition of [3H]PAF binding to dog platelets.

Row | IC50 [nM] | SMILES
1 | 300 | COc1cccc(C(=C/C=C/C(=O)N[C@@H](C)CCCc2cccnc2)c2cccc(OC)c2)c1
2 | 30 | CC/C(=C\C=C\C(=O)N[C@H](C)CCCc1cccnc1)c1ccc(OC)cc1
3 | 40 | COc1ccc(/C(=C/C=C/C(=O)N[C@H](C)CCCc2cccnc2)C(C)C)cc1
4 | 400 | CC[C@@H](CCCc1cccnc1)NC(=O)/C=C/C=C(c1ccc(OC)cc1)c1ccc(OC)cc1
5 | 4 | COc1ccc(/C(=C\C=C\C(=O)N[C@H](C)CCCc2cccnc2)c2ccccc2)cc1
6 | 5 | CCCCCCCC/C(=C\C=C\C(=O)N[C@H](C)CCCc1cccnc1)c1ccc(OC)cc1
7 | 25 | COc1ccc(/C(C)=C/C=C/C(=O)N[C@H](C)CCCc2cccnc2)cc1

The remaining lines, values behind:

Row | SMILES | IC50 [nM]
8 | COc1cccc(/C(=C/C=C/C(=O)NCCCCc2cccnc2)c2cccc(F)c2)c1 | 40
9 | O=C(/C=C/C=C(c1ccc(Cl)cc1)c1ccc(Cl)cc1)NCCCCc1cccnc1 | 60
10 | COc1ccc(C(=C/C=C/C(=O)NCCOCc2cccnc2)c2ccc(OC)cc2)cc1 | 250
11 | COc1ccc(C(=C/C=C/C(=O)NC(C)CCCc2cccnc2C)c2ccc(OC)cc2)cc1 (stereo unspecified) | 30

target: Platelet-activating factor receptor (Canis lupus familiaris); test: Inhibition of [3H]PAF binding to dog platelets.; remark: another data set of the same source

Row | IC50 [nM] | SMILES
12 | > 1000 | CCC[C@H](CCCc1cccnc1)NC(=O)/C=C/C=C(c1ccc(OC)cc1)c1ccc(OC)cc1
13 | 60 | COc1ccc(C(=C/C=C/C(=O)N[C@@H](CCCc2cccnc2)C2CC2)c2ccc(OC)cc2)cc1
14 | 14 | CCCC/C(=C\C=C\C(=O)N[C@H](C)CCCc1cccnc1)c1ccc(OC)cc1
15 | 2 | COc1ccc(/C(=C/C=C/C(=O)N[C@H](C)CCCc2cccnc2)c2ccccc2)cc1
16 | 20 | COc1ccc(/C(=C\C=C\C(=O)N[C@H](C)CCCc2cccnc2)C2CCCCC2)cc1
17 | 120 | CC[C@H](CCCc1cccnc1)NC(=O)/C=C/C=C(c1ccc(OC)cc1)c1ccc(OC)cc1
18 | 50 | COc1ccc(C(=C/C=C/C(=O)N[C@H](C)CCCc2cccnc2)c2ccc(OC)c(OC)c2)cc1OC
19 | 20 | COc1ccc(/C(=C/C=C/C(=O)N[C@H](C)CCCc2cccnc2)C2CCCCC2)cc1
20 | 25 | COc1ccc(C(=C/C=C/C(=O)NCCCCc2cccnc2)c2ccc(OC)cc2)cc1
21 | 35 | COc1cccc(C(=C/C=C/C(=O)N[C@H](C)CCCc2cccnc2)c2cccc(OC)c2)c1
22 | 250 | Cc1ccc(C(=C/C=C/C(=O)N[C@H](C)CCCc2cccnc2)c2ccc(C)cc2)cc1
23 | 50 | CCC/C(=C\C=C\C(=O)N[C@H](C)CCCc1cccnc1)c1ccc(OC)cc1
24 | > 1000 | CCCC[C@H](CCCc1cccnc1)NC(=O)/C=C/C=C(c1ccc(OC)cc1)c1ccc(OC)cc1
25 | 10 | CCCCC/C(=C/C=C/C(=O)N[C@H](C)CCCc1cccnc1)c1ccc(OC)cc1
26 | 30 | COc1ccc(/C=C/C=C/C(=O)N[C@H](C)CCCc2cccnc2)cc1

Second part, the compound before the results:

Row | SMILES | IC50 [nM]
27 | COc1ccc(C(=C/C=C/C(=O)N[C@@H](CCCc2cccnc2)C2CCCC2)c2ccc(OC)cc2)cc1 | > 1000
28 | O=C(/C=C/C=C(c1cccc(F)c1)c1cccc(F)c1)NCCCCc1cccnc1 | 20
29 | O=C(/C=C/C=C(c1ccc(F)cc1)c1ccc(F)cc1)NCCCCc1cccnc1 | 40
30 | COc1ccccc1C(=C/C=C/C(=O)NCCCCc1cccnc1)c1ccccc1OC | 40
31 | COc1ccc(C(=C/C=C/C(=O)NC(C)(C)CCCc2cccnc2)c2ccc(OC)cc2)cc1 | 85
32 | COc1cccc(C(=C/C=C/C(=O)NCCCCc2cccnc2)c2cccc(OC)c2)c1 | 2
33 | COc1ccc(C(=C/C=C/C(=O)Nc2ccc(Cc3cccnc3)cc2)c2ccc(OC)cc2)cc1 | 250
34 | COc1ccc(C(=C/C=C/C(=O)Nc2ccc(-c3cccnc3)cc2)c2ccc(OC)cc2)cc1 | 10
35 | O=C(/C=C\C=C(c1ccccc1)c1ccccc1)NCCCCc1cccnc1 | 400
36 | O=C(CCC=C(c1ccccc1)c1ccccc1)NCCCCc1cccnc1 | 100
37 | O=C(CCCCC=C(c1ccccc1)c1ccccc1)NCCCCc1cccnc1 | 550
38 | O=C(C/C=C/C=C(c1ccccc1)c1ccccc1)NCCCCc1cccnc1 | 55
39 | COc1cccc(/C(=C\C=C\C(=O)NCCCCc2cccnc2)c2cccc(F)c2)c1 | 25
40 | COc1ccc(C(=C/C=C/C(=O)NCCCCc2cccnc2)c2ccc(OC)c(OC)c2)cc1OC | 55
41 | O=C(C=C(c1ccccc1)c1ccccc1)NCCCCc1cccnc1 | 450
